According to US8895738B2, “Mesoionic pyrido [1, 2-A] pyrimidine pesticides” (E I du Pont de Nemours and Company, priority 2010, dated 2014):
Structures can show the parent of a compound that is named as a salt.

Legend:
Assay type in all cases: in vivo
[1] = test system: potato leafhopper (Empoasca fabae); test: Test E: control of potato leafhopper on Soleil bean plant, contact and/or systemic; conditions: 144 h, assessed after 6 days, read-out: control efficacy: mortality; for mortality at 50 ppm: sprayed at 50 ppm; for mortality at 2 ppm: sprayed at 2 ppm; for mortality at 10 ppm: sprayed at 10 ppm
Method: For evaluating control of potato leafhopper (Empoasca fabae) through contact and/or systemic means, the test unit consisted of a small open container with a 5-6-day-old Soleil bean plant (primary leaves emerged) inside. White sand was added to the top of the soil and one of the primary leaves was excised prior to application.
Test compounds were formulated and sprayed at 250, 50, 10 and/or 2 ppm, and the tests were replicated three times as described for Test A. After spraying, the test units were allowed to dry for 1 h before they were post-infested with 5 potato leafhoppers (18-21-day-old adults). A black, screened cap was placed on the top of each test unit, and the test units were held for 6 days in a growth chamber at 24° C. and 70% relative humidity. Each test unit was then visually assessed for insect mortality.

[2] = test system: corn planthopper (Peregrinus maidis); test: Test D: control of corn planthopper on maize plant, contact and/or systemic; conditions: 144 h, assessed after 6 days, read-out: control efficacy: mortality; for mortality at 2 ppm: sprayed at 2 ppm; for mortality at 10 ppm: sprayed at 10 ppm; for mortality at 50 ppm: sprayed at 50 ppm; for mortality at 250 ppm: sprayed at 250 ppm
Method: For evaluating control of corn planthopper (Peregrinus maidis) through contact and/or systemic means, the test unit consisted of a small open container with a 3-4-day-old maize plant (spike) inside. White sand was added to the top of the soil prior to application. Test compounds were formulated and sprayed at 250, 50, 10 and/or 2 ppm, and replicated three times as described for Test A. After spraying, the test units were allowed to dry for 1 h before they were post-infested with ˜15-20 nymphs (18 to 21 day old) by sprinkling them onto the sand with a salt shaker. A black, screened cap was placed on the top of each test unit, and the test units were held for 6 days in a growth chamber at 22-24° C. and 50-70% relative humidity. Each test unit was then visually assessed for insect mortality.

[3] = test system: green peach aphid (Myzus persicae); test: Test B: control of green peach aphid on radish plant, contact and/or systemic; conditions: 144 h, assessed after 6 days; for mortality at 50 ppm: sprayed at 50 ppm
From the text: For evaluating control of green peach aphid (Myzus persicae) through contact and/or systemic means, the test unit consisted of a small open container with a 12-15-day-old radish plant inside. This was pre-infested by placing on a leaf of the test plant 30-40 aphids on a piece of leaf excised from a culture plant (cut-leaf method). The aphids moved onto the test plant as the leaf piece desiccated. After pre-infestation, the soil of the test unit was covered with a layer of sand.
Test compounds were formulated and sprayed at 250, 50 and/or 10 ppm as described for Test A. The applications were replicated three times. After spraying of the formulated test compound, each test unit was allowed to dry for 1 h and then a black, screened cap was placed on top. The test units were held for 6 days in a growth chamber at 19-21° C. and 50-70% relative humidity. Each test unit was then visually assessed for insect mortality.

[4] = test system: rice brown planthopper (Nilaparvata lugens); test: Test H: control of rice brown planthopper on rice plant; conditions: 120 h, assessed after 5 days, read-out: control efficacy: mortality; for mortality at 10 ppm: sprayed at 10 ppm; for mortality at 2 ppm: sprayed at 2 ppm
Method: For evaluating control of rice brown planthopper (Nilaparvata lugens) through contact and/or systemic means, the test unit consisted of a plastic pot containing a 13-cm-tall rice plant covered with steel wire mesh (50 mesh) supported by a wire frame. A small amount of sand was added to form a good seal between the bottom of the wire mesh, the soil surface and the top edge of the plastic pot.
Test compounds were formulated and sprayed at 10, 2 and/or 0.4 ppm, and the tests were replicated three times in a manner similar to the one described for Test A. After spraying, the test units were allowed to dry for 2 h before they were post-infested with 10 brown planthoppers (3rd instar nymphs, 7-9 days post-hatch). After 5 days, each test unit was visually assessed for insect mortality.

[5] = test system: rice green leafhopper (Nephotettix virescens); test: Test G: control of rice green leafhopper on rice plant; conditions: 120 h, assessed after 5 days, read-out: control efficacy: mortality; for mortality at 10 ppm: sprayed at 10 ppm; for mortality at 50 ppm: sprayed at 50 ppm
Method: For evaluating control of rice green leafhopper (Nephotettix virescens) through contact and/or systemic means, the test unit consisted of a plastic pot containing a 13-cm-tall rice plant covered with steel wire mesh (50 mesh) supported by a wire frame. A small amount of sand was added to form a good seal between the bottom of the wire mesh, the soil surface and the top edge of the plastic pot.
Test compounds were formulated and sprayed at 50, 10 and/or 2 ppm, and the tests were replicated three times in a manner similar to the one described for Test A. After spraying, the test units were allowed to dry for 2 h before they were post-infested with 10 green leafhoppers (3rd instar nymphs, 7-9 days post-hatch). After 5 days, each test unit was visually assessed for insect mortality.

[6] = test system: cotton melon aphid (Aphis gossypii); test: Test C: control of cotton melon aphid on cotton plant, contact and/or systemic; conditions: sprayed at 50 ppm
From the text: For evaluating control of cotton melon aphid (Aphis gossypii) through contact and/or systemic means, the test unit consisted of a small open container with a 6-7-day-old cotton plant inside. This was pre-infested with 30-40 insects on a piece of leaf according to the cut-leaf method described for Test B, and the soil of the test unit was covered with a layer of sand.
Test compounds were formulated and sprayed at 250 and/or 50 ppm as described for Test B. The applications were replicated three times. After spraying, the test units were maintained in a growth chamber and then visually rated as described for […].

O=c1c(-c2cccc(Br)c2)c([O-])[n+](Cc2cncnc2)c2ccccn12 [Compound 8]
≥ 80%: mortality at 50 ppm [1]

O=c1c(-c2cc(Cl)cc(C(F)(F)F)c2)c([O-])[n+](Cc2cncnc2)c2ccccn12 [Compound 15, 3-[3-chloro-5-(trifluoromethyl)phenyl]-2-hydroxy-4-oxo-1-(5-pyrimidinylmethyl)-4H-pyrido[1,2-a]pyrimidinium inner salt]
≥ 80%: mortality at 2 ppm [2] | mortality at 10 ppm [2] | mortality at 50 ppm [2] | mortality at 2 ppm [1] | mortality at 10 ppm [1] | mortality at 50 ppm [1] | mortality at 10 ppm ([3]; sprayed at 10 ppm) | mortality at 50 ppm [3] | mortality at 10 ppm [4]

O=c1c(-c2ccccc2F)c([O-])[n+](Cc2cncnc2)c2ccccn12 [Compound 9, 3-(2-fluorophenyl)-2-hydroxy-4-oxo-1-(5-pyrimidinylmethyl)-4H-pyrido[1,2-a]pyrimidinium inner salt]
≥ 80%: mortality at 50 ppm [2] | mortality at 10 ppm [1] | mortality at 50 ppm [1] | mortality at 10 ppm [4]

O=c1c(-c2ccc(F)cc2F)c([O-])[n+](Cc2cncnc2)c2ccccn12 [Compound 6, 3-(2,4-difluorophenyl)-2-hydroxy-4-oxo-1-(5-pyrimidinylmethyl)-4H-pyrido[1,2-a]pyrimidinium inner salt]
≥ 80%: mortality at 10 ppm [1] | mortality at 50 ppm [1]

O=c1c(-c2cc(Cl)c(F)c(Cl)c2)c([O-])[n+](Cc2cncnc2)c2ccccn12 [Compound 17, 3-(3,5-dichloro-4-fluorophenyl)-2-hydroxy-4-oxo-1-(5-pyrimidinylmethyl)-4H-pyrido[1,2-a]pyrimidinium inner salt]
≥ 80%: mortality at 10 ppm [2] | mortality at 50 ppm [2]

O=c1c(-c2cccc(Cl)c2)c([O-])[n+](Cc2cncnc2)c2ccccn12 [Compound 19, 3-(3-chlorophenyl)-2-hydroxy-4-oxo-1-(5-pyrimidinylmethyl)-4H-pyrido[1,2-a]pyrimidinium inner salt]
≥ 80%: mortality at 10 ppm [2] | mortality at 50 ppm [2] | mortality at 10 ppm [1] | mortality at 50 ppm [1] | mortality at 50 ppm [3]

COc1ccccc1-c1c([O-])[n+](Cc2cncnc2)c2ccccn2c1=O [Compound 4, 2-hydroxy-3-(2-methoxyphenyl)-4-oxo-1-(5-pyrimidinylmethyl)-4H-pyrido[1,2-a]pyrimidinium inner salt]
≥ 80%: mortality at 50 ppm [2] | mortality at 50 ppm [1]

O=c1c(-c2ccc(F)cc2)c([O-])[n+](Cc2cncnc2)c2ccccn12 [Compound 2, 3-(4-fluorophenyl)-2-hydroxy-4-oxo-1-(5-pyrimidinylmethyl)-4H-pyrido[1,2-a]pyrimidinium inner salt]
≥ 80%: mortality at 2 ppm [2] | mortality at 10 ppm [2] | mortality at 50 ppm [2] | mortality at 250 ppm [2] | mortality at 10 ppm [1] | mortality at 50 ppm [1] | mortality at 10 ppm [5] | mortality at 50 ppm [5] | mortality at 2 ppm [4] | mortality at 10 ppm [4]

O=c1c(-c2cccc(OC(F)(F)F)c2)c([O-])[n+](Cc2cncnc2)c2ccccn12 [Compound 7, 2-hydroxy-4-oxo-1-(5-pyrimidinylmethyl)-3-[3-(trifluoromethoxy)phenyl]-4H-pyrido[1,2-a]pyrimidinium inner salt]
≥ 80%: mortality at 2 ppm [1] | mortality at 10 ppm [1] | mortality at 50 ppm [1] | mortality at 2 ppm ([5]; sprayed at 2 ppm) | mortality at 10 ppm [5] | mortality at 50 ppm [5] | mortality at 50 ppm [6] | mortality at 0.4 ppm ([4]; sprayed at 0.4 ppm) | mortality at 2 ppm [4] | mortality at 10 ppm [4]

O=c1c(-c2cc(C(F)(F)F)ccc2F)c([O-])[n+](Cc2cncnc2)c2ccccn12 [Compound 10, 3-[2-fluoro-5-(trifluoromethyl)phenyl]-2-hydroxy-4-oxo-1-(5-pyrimidinylmethyl)-4H-pyrido[1,2-a]pyrimidinium inner salt]
≥ 80%: mortality at 10 ppm [2] | mortality at 50 ppm [2] | mortality at 250 ppm [2] | mortality at 50 ppm [1] | mortality at 10 ppm [5] | mortality at 50 ppm [5] | mortality at 2 ppm [4] | mortality at 10 ppm [4]

O=c1c(-c2cc(Cl)cc(Cl)c2)c([O-])[n+](Cc2cncnc2)c2ccccn12 [Compound 16, 3-(3,5-dichlorophenyl)-2-hydroxy-4-oxo-1-(5-pyrimidinylmethyl)-4H-pyrido[1,2-a]pyrimidinium inner salt]
≥ 80%: mortality at 10 ppm [2] | mortality at 50 ppm [2] | mortality at 50 ppm [3]

COc1cccc(-c2c([O-])[n+](Cc3cncnc3)c3ccccn3c2=O)c1 [Compound 5, 2-hydroxy-3-(3-methoxyphenyl)-4-oxo-1-(5-pyrimidinylmethyl)-4H-pyrido[1,2-a]pyrimidinium inner salt]
≥ 80%: mortality at 10 ppm [2] | mortality at 50 ppm [2] | mortality at 10 ppm [1] | mortality at 50 ppm [1]

Cc1cc(-c2ccc(C#N)cc2C)cc(-c2c([O-])[n+](Cc3cncnc3)c3ccccn3c2=O)c1 [Compound 18, 3-(4′-cyano-5,2′-dimethyl[1,1′-biphenyl]-3-yl)-2-hydroxy-4-oxo-1-(5-pyrimidinylmethyl)-4H-pyrido[1,2-a]pyrimidinium inner salt]
≥ 80%: mortality at 50 ppm [2] | mortality at 50 ppm [1]

Cc1cccc(-c2c([O-])[n+](Cc3cncnc3)c3ccccn3c2=O)c1 [Compound 11, 2-hydroxy-3-(3-methylphenyl)-4-oxo-1-(5-pyrimidinylmethyl)-4H-pyrido[1,2-a]pyrimidinium inner salt]
≥ 80%: mortality at 10 ppm [2] | mortality at 50 ppm [2] | mortality at 10 ppm [1] | mortality at 50 ppm [1] | mortality at 10 ppm [5] | mortality at 50 ppm [5] | mortality at 10 ppm [4]
